Values quoted from earlier work, collected in article PMC8198792, “Prediction of Anticancer Peptides with High Efficacy and Low Toxicity by Hybrid Model Based on 3D Structure of Peptides” (International Journal of Molecular Sciences, 2021).
Where two headings read alike, the source gives them in different places.

How the values were obtained:
cancer cell lines = tested on: cancer cell lines; parameters: method as in 6 sources, ref CancerPPD [45] and SATPdb ||| ref CancerPPD/SATPdb ||| ref CancerPPD, SATPdb, Swissprot (PDB) ||| ref CancerPPD/SATPdb/Swissprot(PDB) ||| ref CancerPPD / SATPdb ||| ...; settings: cited from earlier work
Excerpt: Supplement ijms-22-05630-s001.zip/ACPs(seguence).xlsx, sheet "D1" | column: Activity || Supplement ijms-22-05630-s001.zip/ACPs(seguence).xlsx, sheet "D2" | column: Activity || Supplement ijms-22-05630-s001.zip/ACPs(seguence).xlsx, sheet "D3" | column: Activity || (+ 2 further places)

[1] = tested on: many types of cells, including non-cancer cells; settings: toxic peptides dataset TD2; class label 1 (toxic, positive set) or 0 (non-toxic AMP, negative set); ref SATPdb; cited from earlier work
erythrocytes = settings: cited from earlier work
Excerpt: Supplement ijms-22-05630-s001.zip/Hemloytic Peptides(seguence).xlsx, sheet "HD1" | column: Activity || Supplement ijms-22-05630-s001.zip/Hemloytic Peptides(seguence).xlsx, sheet "HD2" | column: Activity || Supplement ijms-22-05630-s001.zip/Hemloytic Peptides(seguence).xlsx, sheet "HD3" | column: Activity

[2] = ACPs dataset D3 (supplement sheet "D3"), 1 = ACP, 0 = non-ACP, ref CancerPPD [45] and SATPdb
[3] = ACPs dataset D4 (sheet "D4"), label 1 = ACP, 0 = non-ACP, ref CancerPPD / SATPdb
[4] = ACPs dataset D5, sheet "D5", label 1 = ACP, 0 = non-ACP, ref CancerPPD [45] and SATPdb
[5] = Hemolytic peptides dataset HD2, label 1 = hemolytic, 0 = non-hemolytic, ref Hemolytik/SATPdb
[6] = hemolytic peptides dataset HD3, 1 = hemolytic (positive set), 0 = non-hemolytic (negative set), labels taken from databases, ref Hemolytik/SATPdb
[7] = ACPs dataset D3 (sheet "D3"), label 1 = ACP, 0 = non-ACP, ref CancerPPD/SATPdb
[8] = ACPs dataset D4 (sheet "D4"), label 1 = ACP (CancerPPD ID), 0 = non-ACP (non-anticancer AMP, SATPdb ID), ref CancerPPD [45] and SATPdb
[9] = ACPs dataset D1, label 1 = ACP, 0 = non-ACP (non-anticancer AMPs from SATPdb), ref CancerPPD/SATPdb

Row | Substance | Activity [1] | further results
1 | FLPLLASLFSGLF [satpdb11101] | 0 | Activity (cancer cell lines; [2]): 0; Activity (cancer cell lines; [3]): 0; Activity (cancer cell lines; [4]): 0
2 | KILRGVSKKIMRTFLRRILTGKK [satpdb23198] | 1 | –
3 | FIPLVSGLFSRLL [satpdb15094] | 0 | –
4 | LLGMIPLAISAISSLSKL [satpdb20037] | 1 | –
5 | IIGHLIKTALGMLGL [satpdb15972] | 0 | –
6 | RRIPRPILLPWRPPRPIPRPQPQPIPRWL [satpdb15488] | 0 | –
7 | GFKRIVQRIKDFLRNLV [satpdb10735] | 0 | –
8 | GVVTDLLNTAGGLLGNLVGSLSG [satpdb21886] | 1 | –
9 | IFGAILPLALGALKNLIK [satpdb27411] | 1 | –
10 | LGPALITRKPLKGKP [satpdb17072] | 0 | –
11 | GVLDILKNAAKNILAHAAEQI [satpdb26113] | 1 | –
12 | FISGLIGGLMKAL [satpdb16102] | 0 | –
13 | RRRPRPPYLPRPRPPPFFPPRLPPRIPPGFPPRFPPRFP [satpdb15417] | 0 | –
14 | FIGAILPAIAGLVHGLINR [satpdb19442] | 1 | –
15 | GMASKAGSVLGKLAKVAIGAL [satpdb16457] | 0 | –
16 | GLLDIVKKVVGAFGSL [satpdb12368] | 0 | –
17 | GVIIDTLKGAAKTVAAELLRKAHCKLTNSC [satpdb16783] | 1 | –
18 | FFGAIAAALPHVISAIKNAL [satpdb28842] | 1 | –
19 | GRRRRSVQWCAVSQPEATKCFQWQRNMRKVRGPPVSCIKRDSPIQCIQA [satpdb10374] | 0 | –
20 | FFPIVGKRLYGLL [satpdb15392] | 0 | –
21 | FLGAIAAALPHVINAVTNAL [satpdb16106] | 1 | –
22 | FLPLLFGALSTLLPKIF [satpdb23665] | 1 | –
23 | LLDVLLE [satpdb11533] | 0 | –
24 | FLPFLIPALTSLISSL [satpdb15275] | 0 | –

Row | Substance | Activity [1] | further results
25 | GFGPAFHSVSNFAKKHKTA [satpdb16916] | 0 | –
26 | GFIFHIIKGLFHAGKMIHGLV [satpdb15908] | 0 | –
27 | SAPRGCWTKSYPPKPCK [satpdb28266] | 1 | –
28 | GLLSFLPKVIGVIGHLIHPPS [satpdb15305] | 0 | –
29 | GKWMSLLKHILK [satpdb20336] | 1 | –
30 | FIGLLISAGKAIHDLIRRRH [satpdb26817] | 1 | –
31 | ILPWKWPWWPWRR [satpdb22480] | 1 | –
32 | GLWQKIKNAAGDLASGIVEGIKS [satpdb17290] | 0 | –
33 | GFRKFHKFWA [satpdb14908] | 0 | –
34 | SLSRFLSFLKIVYPPAF [satpdb15130] | 0 | –
35 | GLFDIIKKVASVIGGL [satpdb15856] | 0 | –
36 | IIGPVLGLVGKPLESLLE [satpdb17226] | 0 | –
37 | FLPLVLGALSGILPKIL [satpdb22972] | 1 | –
38 | VDIHVWD*GV [satpdb19274] | 1 | –
39 | TKPTLLGLPLGAGPAAGPGKR [satpdb17447] | 0 | –
40 | RFRLPFRRPPIRIHPPPFYPPFRRFL [satpdb12266] | 1 | –
41 | GMWSKILGHLIR [satpdb20159] | 1 | –
42 | GLLDFVTGVGKDIFAQLIKQI [satpdb25435] | 1 | –
43 | ILPILSLIGGLLGK [satpdb11856] | 0 | –
44 | GVVTDLLKTAGKLLGNLVGSLSG [satpdb26504] | 1 | –
45 | FFPLVLGALGSILPKIF [satpdb25475] | 1 | –
46 | NFLGTLVNLAKKIL [satpdb20410] | 1 | –
47 | GLVTGLLKTAGKLLGDLFGSLTG [satpdb19701] | 1 | –
48 | IIGAIAAALPHVINAIKNTF [satpdb19948] | 1 | –

Row | Substance | Activity [1] | further results
49 | GLPVCGETCVGGTCNTPGCTCSWPVCTRN [satpdb19932] | 1 | –
50 | GIGGVLLGAGKATLKGLAKVLAEKYAN [satpdb26873] | 1 | –
51 | GLFDIIKKIAESF [satpdb11488] | 0 | –
52 | GILDAIKAFANALG [satpdb15517] | 0 | –
53 | FLSGIVGMLGKLF [satpdb21516] | 1 | –
54 | FLGLLGSLL [satpdb15039] | 0 | –
55 | FLPLIGKILGTIL [satpdb15913] | 0 | –
56 | GVLSVIKNALPGIMRF [satpdb16950] | 0 | –
57 | FLPAALAGIGGILGKLF [satpdb24046] | 1 | –
58 | ALYLAIRRR [satpdb16531] | 0 | –
59 | LKLSPKTKDTLKKVLKGAIKGAIAIASMA [satpdb13200] | 1 | –
60 | GFMKYIGPLIPHAVKAISDLI [satpdb17997] | 1 | –
61 | LLPIVGNLLNSLL [satpdb24565] | 1 | –
62 | FFPLLFGALSSHLPKLF [satpdb16485] | 1 | –
63 | GIGGALLSAGKAALKGLAKVLV [satpdb22839] | 1 | –
64 | GALRGCWTKSYPPKPCK [satpdb24908] | 1 | –
65 | NILNTIINLAKKIL [satpdb16074] | 0 | –
66 | GLVTSLIKGAGKLLGGLFGSVTG [satpdb15873] | 0 | –
67 | FLSAITSLLGKLL [satpdb15955] | 0 | –
68 | GWLRKAAKSVGKFYYKHKYYIKAAWKIGRHAL [satpdb17212] | 0 | –
69 | NFLGTLINLAKKIM [satpdb14927] | 0 | –
70 | GLVTGLLKTAGKLLGDLFGSLSG [satpdb20565] | 1 | –
71 | LLGMIPLAISAISALSKL [satpdb26571] | 1 | –
72 | GVVDILKGAGKDLLAHLVGKISEKV [satpdb27434] | 1 | –

Row | Substance | Activity [1] | further results
73 | GFKDLLKGAAKALVKTVLF [satpdb25277] | 1 | –
74 | LALALKHALHKALLLAKHLAHKLALA [satpdb16273] | 0 | –
75 | FVQWFSKFLGRIL [satpdb16211] | 1 | –
76 | GLGSLVGNALRIGAKLL [satpdb15217] | 0 | –
77 | KAYSMPRCKYLFRAVLCWL [satpdb15879] | 0 | –
78 | ILPLKLPLLPWRR [satpdb11013] | – | Activity (cancer cell lines; [2]): 0; Activity (cancer cell lines; [3]): 0; Activity (cancer cell lines; [4]): 0; Activity (erythrocytes; [5]): 0; Activity (erythrocytes; [6]): 0
79 | KKKAAAFAAWAAFAKKK [satpdb11969] | – | Activity (cancer cell lines; [7]): 0; Activity (cancer cell lines; [3]): 0; Activity (cancer cell lines; [4]): 0; Activity (erythrocytes): 0
80 | FFGWLIKGAIHAGKAIHGLIHRRRH [satpdb28313] | 1 | –
81 | FLAGLIGGLAKMLGK [satpdb10461] | – | Activity (cancer cell lines; ACPs dataset D1, 1 = ACP (positive), 0 = non-ACP (negative), label taken from databases, ref CancerPPD [45] and SATPdb): 0; Activity (cancer cell lines; [8]): 0; Activity (erythrocytes): 1; Activity (dataset HD1, hemolytic 1 / non-hemolytic 0) (erythrocytes): 1
82 | GRFKRFRKKFKKLFKKLSPVIPLLHL [satpdb13682] | – | Activity (cancer cell lines; [7]): 0; Activity (cancer cell lines; [3]): 0; Activity (cancer cell lines; [4]): 0; Activity (erythrocytes): 1
83 | DVNDLKNLCAKTHNLLPMCAMF [satpdb13885] | – | Activity (cancer cell lines; [7]): 0; Activity (cancer cell lines; [3]): 0; Activity (cancer cell lines; [4]): 0; Activity (erythrocytes): 0
84 | GLKDIFKAGLGSLVKNIAAHVAN [satpdb11475] | 0 | –
85 | GLFDIVKKIAGHIVSSI [satpdb13076] | 0 | –
86 | RILRGVSRRIMRRILTGRR [satpdb20239] | 1 | –
87 | KISKKIMRTFLRRILTGKK [satpdb19592] | 1 | –
88 | VKLKVyPLKVKLyP [satpdb10236] | – | Activity (cancer cell lines; [2]): 0; Activity (cancer cell lines; [3]): 0; Activity (cancer cell lines; [4]): 0; Activity (erythrocytes): 1
89 | ALKAALLAILKIVRVIKK [satpdb15928] | 0 | –
90 | GLLSGILGAGKQKVCGLSGLC [satpdb12339] | – | Activity (cancer cell lines; [9]): 0; Activity (cancer cell lines; [8]): 0; Activity (erythrocytes): 1; Activity (dataset HD1, hemolytic 1 / non-hemolytic 0) (erythrocytes): 1
91 | FLPVILPVIGKLLSGIL [satpdb17809] | 1 | –
92 | GVLDIFKDAAKQILAHAAEKQI [satpdb12665] | 1 | –
93 | FIGALLRPALKLLAGK [satpdb27126] | 1 | –
94 | FLPILAGLAAKIVPKLFCLATKKC [satpdb11778] | – | Activity (cancer cell lines; [9]): 0; Activity (cancer cell lines; [8]): 0; Activity (erythrocytes): 1; Activity (dataset HD1, hemolytic 1 / non-hemolytic 0) (erythrocytes): 1
95 | GFLSILKKVLAKVMAHMK [satpdb13478] | – | Activity (cancer cell lines; [7]): 0; Activity (cancer cell lines; [3]): 0; Activity (cancer cell lines; [4]): 0; Activity (erythrocytes; [5]): 1; Activity (erythrocytes; [6]): 1
